Laboratory results as given in PubChem BioAssay (NCI).
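Five concentrations, 48 hours, 96-well plates. At the GI50, growth is halved. TGI: total growth inhibition.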

Experiments:
Experiment in all cases: growth of human tumour cells (NCI), 48 h
[1] = system: TK-10 renal
[2] = system: DU-145 prostate
[3] = system: SF-539 CNS
[4] = system: 786-0 renal
[5] = system: HCT-116 colon
[6] = system: HOP-62 NSCLC
[7] = system: A549 NSCLC
[8] = system: NCI/ADR-RES ovarian
[9] = system: UO-31 renal
[10] = system: OVCAR-5 ovarian
[11] = system: SN12C renal
[12] = system: EKVX NSCLC
[13] = system: SW-620 colon
[14] = system: MOLT-4 leukemia
[15] = system: M14 melanoma
[16] = system: SK-OV-3 ovarian
[17] = system: OVCAR-8 ovarian
[18] = system: NCI-H23 lung
[19] = system: PC-3 prostate
[20] = system: SK-MEL-2 melanoma
[21] = system: RPMI-8226 leukemia
[22] = system: NCI-H522 lung
[23] = system: HS 578T breast
[24] = system: SF-268 CNS
[25] = system: COLO 205 colon
[26] = system: OVCAR-3 ovarian
[27] = system: MDA-MB-435
[28] = system: NCI-H460 lung
[29] = system: T-47D breast
[30] = system: HT29 colon
[31] = system: SK-MEL-28 melanoma
[32] = system: HL-60(TB) leukemia
[33] = system: IGROV1 ovarian
[34] = system: ACHN renal
[35] = system: RXF 393 renal
[36] = system: HCT-15 colon
[37] = system: CCRF-CEM leukemia
[38] = system: MALME-3M melanoma
[39] = system: BT-549 breast
[40] = system: U251 CNS
[41] = system: SF-295 CNS
[42] = system: UACC-257 melanoma
[43] = system: UACC-62 melanoma
[44] = system: MDA-MB-231 breast
[45] = system: OVCAR-4 ovarian
[46] = system: NCI-H226 lung
[47] = system: KM12 colon
[48] = system: LOX IMVI melanoma
[49] = system: CAKI-1 renal
[50] = system: MCF7 breast
[51] = system: SNB-19 CNS
[52] = system: HOP-92 NSCLC

## CCCCC#CC#Cc1cccc(=O)o1
[1]
  GI50: 14.3 µM
  TGI: 28.3 µM
[2]
  GI50: 21.9 µM
  TGI: 50.8 µM
[3]
  GI50: 24.6 µM
  TGI: 51.6 µM
[4]
  GI50: 16.6 µM
  TGI: 34.6 µM
[5]
  GI50: 14.8 µM
  TGI: 28.3 µM
[6]
  GI50: 18.1 µM
  TGI: 34.4 µM
[7]
  GI50: 39.2 µM
  TGI: > 100 µM
[8]
  GI50: 17.2 µM
  TGI: 37.4 µM
[9]
  GI50: 21.9 µM
  TGI: 46.2 µM
[10]
  GI50: 22.3 µM
  TGI: 46.6 µM
[11]
  GI50: 15.1 µM
  TGI: 38.8 µM
[12]
  GI50: 49 µM
  TGI: > 100 µM
[13]
  GI50: 18.7 µM
  TGI: 53.1 µM
[14]
  GI50: 4.77 µM
  TGI: 32.1 µM
[15]
  GI50: 21.7 µM
  TGI: 40.6 µM
[16]
  GI50: 27.3 µM
  TGI: 46.7 µM
[17]
  GI50: 26.4 µM
  TGI: 62.9 µM
[18]
  GI50: 18.4 µM
  TGI: 36.2 µM
[19]
  GI50: 31 µM
  TGI: > 100 µM
[20]
  GI50: 38.6 µM
  TGI: 69.3 µM
[21]
  GI50: 10.5 µM
  TGI: 90.8 µM
[22]
  GI50: 23.2 µM
  TGI: 52.1 µM
[23]
  GI50: 25.9 µM
  TGI: 51.6 µM
[24]
  GI50: 41.4 µM
  TGI: > 100 µM
[25]
  GI50: 17.7 µM
  TGI: 35 µM
[26]
  GI50: 23.9 µM
  TGI: 69.6 µM
[27]
  GI50: 22 µM
  TGI: 48.6 µM
[28]
  GI50: 20.9 µM
  TGI: > 100 µM
[29]
  GI50: 8.34 µM
  TGI: 25.7 µM
[30]
  GI50: 13.5 µM
  TGI: 36.1 µM
[31]
  GI50: 14.4 µM
  TGI: 29 µM
[32]
  GI50: 15.6 µM
  TGI: 43.1 µM
[33]
  GI50: 30.7 µM
  TGI: 75.8 µM
[34]
  GI50: 14.6 µM
  TGI: 28.7 µM
[35]
  GI50: 32.9 µM
  TGI: > 100 µM
[36]
  GI50: 20.2 µM
  TGI: 39.5 µM
[37]
  GI50: 15.4 µM
  TGI: > 100 µM
[38]
  GI50: 14.1 µM
  TGI: 27.6 µM
[39]
  GI50: 20.3 µM
  TGI: 46.9 µM
[40]
  GI50: 24.6 µM
  TGI: 72.7 µM
[41]
  GI50: 18.8 µM
  TGI: 40 µM
[42]
  GI50: 22.1 µM
  TGI: 46.7 µM
[43]
  GI50: 16.1 µM
  TGI: 32.8 µM
[44]
  GI50: 19.5 µM
  TGI: 43.2 µM
[45]
  GI50: 16.4 µM
  TGI: 37.6 µM
[46]
  GI50: 16.3 µM
  TGI: 38.3 µM
[47]
  GI50: 13.5 µM
  TGI: 27.4 µM
[48]
  GI50: 16.2 µM
  TGI: 32.3 µM
[49]
  GI50: 22.5 µM
  TGI: 60 µM
[50]
  GI50: 26.1 µM
  TGI: > 100 µM
[51]
  GI50: 12.6 µM
  TGI: 27.7 µM
[52]
  GI50: 33.2 µM
  TGI: > 100 µM
